Series [1] deals with chick chorioallantoic membrane (CAM) blood vessel branch points. The series is described as follows: Chick chorioallantoic membrane (CAM) model of angiogenesis. In kind it is in vivo. Here is the method:
In vivo neovascularization was examined by methods described previously. 9-12 Ten-day-old chick embryos were purchased from SPAFAS (Preston, Conn.) and incubated at 37° C. with 55% relative humidity. A hypodermic needle was used to make a small hole in the shell concealing the air sac, and a second hole was made on the broad side of the egg, directly over an avascular portion of the embryonic membrane that was identified by candling. A false air sac was created beneath the second hole by the application of negative pressure at the first hole, causing the CAM to separate from the shell. […] Thyroid hormone, hormone analogs, FGF2 or control solvents, and inhibitors were then applied to the disks and the disks allowed to dry. The disks were then suspended in PBS and placed on growing CAMs. […] At 24 hours, the MAPK cascade inhibitor PD 98059 was also added to CAMs topically by means of the filter disks. […] The number of vessel branch points contained in a circular region equal to the area of each filter disk were counted. […] In addition, each experiment was performed 3 times. The resulting angiogenesis index is the mean±SEM of new branch points.

Series [2] has as its system GL261 murine brain tumor cells. The series is described as follows: GL261 growth curve, colony forming efficiency and cell size. In kind it is cell-based. The procedure:
1×10^5 cells per 25 cm^2 flask at time zero (density 40 cells/mm^2). Three flasks were utilized at each time period. The medium in the flasks was not changed over the duration of the growth curve (unfed cultures). Data were taken daily from day zero to day 11.5 post-seeding and cell numbers, age distributions, and apoptotic percentages were determined. After growth curve shapes (without and with 2 μM Tetrac) were determined, irradiation times at 70 and 270 hour post-seeding were chosen.
To obtain exponential and plateau phase cell numbers, we trypsinized ([…] trypsin-EDTA) cells for 5 min at 37° C.
For determination of CCDTs, the cell numbers per flask were determined on a daily basis. A four-day interval in the exponential region of growth to obtain the CCDTs, yielding a total of 12 estimations for analysis was utilized. A regression analysis was performed using the (log) of the cell number versus the linear time in days (SigmaPlot, V. 10, Systat Software, Inc., Point Richmond, Calif.). The log slope value and its standard error (SE) were determined, and the SE was converted to the 95% confidence limits using a two-tailed t-table at N−1 degrees of freedom where N is the number of samples. (See Goldstein, A. In: Biostatistics, New York, The MacMillan Co., 1964, p. 140-146).

The subject of a further series is GL261 cells. In words: GL261 potentially lethal damage repair (PLDR). Type of series: cell-based, murine. Here is the method:
PLDR was also measured using the 10% survival level in both control and Tetrac treated-cells, and was also done for both exponentially growing and plateau phase cells. The total 10% survival dose was given, and then cells were placed back into the 37° C. incubator for various periods of time. At 0, 0.5, 1.0, 1.5, 2.0, 3.0, 4.0, 6.0, 8.0, and 10.0 hours, flasks were removed, and processed for survival assessment.
To investigate the effects of Tetrac on SLDR and PLDR, cells were chosen that had been given a one-hour treatment with Tetrac at two different times, i.e., at 70 and 270 hours post-seeding).

A further series has as its system human MTC cells. In words: RNA microarray of h-MTC cells. In kind it is cell-based.
The next series has as its system human cancer xenografts. The conditions noted are these: in vivo; cited from earlier work.
The test system of series [3] is U87MG human glioblastoma cells. The series is described as follows: U87MG clonogenic survival after 250 kVp single dose x-irradiation. Type of series: cell-based. Here is the method:
To irradiate culture flasks, a Philips 250 kVp x-ray machine (Philips Corp., Fall River, Mass.) operated at 250 kVp and 15 mA with added filtration of a 0.4 mm Thoreaus filter was used. The target to source distance was 30 cm. Dose rates were measured using an R-meter (Victoreen Co., Cleveland, Ohio), and converted to absorbed (Gy) doses using appropriate temperature, pressure, and R to Gy conversion factors. The dose rate was approximately 1 Gy/min. Flasks were irradiated after being taken from a 37° C. environment and moved to the x-ray source. Movement at ambient temperature took approximately 1-2 min. Cells were next placed on ice and allowed to cool for 5 min. Lastly, flasks were placed in the Philips irradiator on top of a 2 mm thickness of Lucite which was on top of a layer of crushed ice.
The maximum time needed for irradiation of the single dose survival curve was approximately 8 min.
For SHMT analysis, data lying at or below a fractional survival (F×S) value of 0.368 were fit using a linear regression analysis of the log survival data versus linear dose. From this fit the extrapolation number (n), the quasi-threshold dose (Dq, Gy) and the inverse of the inactivation slope (Do, Gy) were derived.
For LQ analyses, survival data lying between the fractional survivals of 1.00 and 0.05 were used. The log survival data were transformed to a linear form using the relationship (−ln F×S/D) and plotted against D. A linear regression analysis was performed to yield the LQ equation along with the 95% confidence limits on the y-intercept (alpha) and the slope (beta) using a t-table with the appropriate (N−1) degrees of freedom. (See Goldstein A. Biostatistics, Academic Press, 1995.)

The subject of series [4] is matrigel plug angiogenesis. In words: Mouse matrigel model of angiogenesis (plug hemoglobin). In kind it is in vivo, mice (C57BL/6NCr). The procedure:
Normal male mice (C57BL/6NCr) 6-8 weeks of age and weighing ˜20 g were purchased from Taconic farm. Animals were housed 4 per cage, in controlled conditions of temperature (20-24° C.); humidity (60-70%) and 12 hrs. light/dark cycle provided with food and water ad libitum. […] Aliquots of matrigel were placed into cold polypropylene tubes to prevent the matrigel from solidifying and the angiogenesis promoter added to matrigel with or without agonist. Mice were treated daily. Matrigel was subcutaneously injected as triple injection per animal at 100 μL/animal. At day 14 post plug implant all animals were killed in CO2 chamber and matrigel plugs were collected. Plug hemoglobin content was analyzed from three implants/mice (n=6 per group) to measure angiogenesis.
The matrigel plugs dissected from the mice were carefully stripped of any remaining peritoneum. The plugs were placed into 0.5 mL tube of ddH2O and homogenized for 5-10 min. […] Absorbance was read with a Microplate Manager ELISA reader at 540 nm. […] Hemoglobin concentration is a reflection of the number of blood vessels in the plugs.

Series [5] concerns human medullary carcinoma of the thyroid (MTC) xenograft. The series is described as follows: MTC xenograft in nude mice. The conditions noted are these: mouse, in vivo. From the text:
Water and food were provided ad libitum.

Entries after “also recorded” stand apart in the source; their conditions may differ.

Description for human MTC cells: Technical aspects of microarray studies, stringent quality control of microarray studies and statistic analysis of gene expression were as described previously. […] In brief, the array hybridization and processing, data retrieval and the analysis were carried out with standard sets of Affymetrix (Santa Clara, Calif.) equipment, software and protocols in an Affymetrix microarray core facility. RNA was extracted from cell cultures of two independent biological replicates of each experimental condition and analyzed for sample purity and integrity, using BioAnalyzer instrumentation (Agilent, Santa Clara, Calif.). Expression analysis of 54,675 transcripts was conducted for each sample, using Affymetrix HG-U133A Plus 2.0 arrays. Data retrieval and analysis was completed by MAS5.0 software. Concordant changes of gene expression for each experimental condition were determined at the statistical threshold P value, <0.01 (two-tailed t test).

A word on the inhibition in vivo: it is the share of the control response that was lost under treatment. Turning to `O=C(O)Cc1cc(I)c(Oc2cc(I)c(O)c(I)c2)c(I)c1` [Tetrac, tetraiodothyroacetic acid], the “effect on angiogenesis stimulated by T4-agarose (in words)” value in series [1] (T4-agarose 0.1 μmol/L + Tetrac) is “inhibited”. Also, the “effect on angiogenesis stimulated by T4 (in words)” value in series [1] (Tetrac 0.1 μmol/L, T4 0.1 μmol/L) is given as “inhibited the action of T4”. The “effect of Tetrac alone on angiogenesis (in words)” value in series [1] (Tetrac alone) is “had no effect on angiogenesis; also recorded: does not stimulate angiogenesis”. For the same compound, in series [2] (exponential cells (+Tetrac), control 30.6, with feeder cells), the “CFE (%)” value is reported as 24.2%. Besides, the “size of Tetrac-treated cells relative to control (volumetric data)” value in series [2] (exponential phase) is 1.4 times. The “size of Tetrac-treated cells relative to control (volumetric data)” value in series [2] (plateau phase) worked out at 1.9 times. In “Tetrac uptake”, the “half-time for Tetrac uptake” value lay within 10 to 15 min. Further, the “inhibition of PLDR by a factor of” value with GL261 cells (exponential cells) is reported as 1.9. For the same compound, in the series with GL261 cells (plateau phase cells), the “decrease of PLDR expression by a factor of” value turned out to be 3.4. Further, in the series on human MTC cells, the “expression of VEGFA (in words)” value is listed as “significantly decreased”; the “expression of genes associated with induction of apoptosis: CASP2, DFFA, FAF1, CASP8AP2 (in words)” value is recorded as “caused expression”; the “expression of thrombospondin (THBS1) gene (in words)” value is given as “increase”. In the series with human cancer xenografts, the “systemic toxicity (in words)” value is given as “have not to-date shown systemic toxicity”. In [3], the “increase of α (ratio of the alpha values, sensitization factor)” value is reported as 3.6 fold; the “isoeffect comparison at 10% survival, ratio” value is on record as 2.2; the “ratio of relative survival values at 2 Gy” value is on record as 4.6; the “reduction of the D0 value” stood at 31%. Besides, in series [3] (Tetrac treated cells, control 0.016 (±0.002)), the “β (LQ)” value is 0.076 (±0.006). For the same compound, in series [3] (Tetrac treated cells, control 2.97 (2.41-3.21)), the “n (SHMT)” value is given as 1.01 (0.45-2.3). In addition, in [3] (range of 2.2 to 4.6), the “sensitization factor, average of 3 comparisons” value was 3.5. For the same compound, the inhibition in vivo at 10 µg/plug in series [4] (Mus musculus, FGF 100 ng + test substance 10 μg/plug, numbers are Tetrac analogs of Example 13) amounted to 90 ± 13%. Also, in series [4] (Tetrac 10 μg), the “inhibition of FGF induced angiogenesis” value is listed as 85%. In addition, the “mortality (in words)” value in series [5] was “no mortality”.

(Values after patent publication US8802240B2, “Uses of formulations of thyroid hormone analogs and nanoparticulate forms thereof to increase chemosensitivity and radiosensitivity in tumor or cancer cells” (Nanopharmaceuticals LLC, priority 2011, dated 2014).)
